From US20090022675A1, “ESTERS WITH WARMING PROPERTIES” (priority 2007, published 2009)

Experiment: Warming properties: rise in temperature on mixing with water (heat of solution)
Format: physicochemical
Conditions: mixed with water; Hest G-18-O maximum when about 60% by weight is used
Source text: When Hest G-18-O is mixed with water at ambient temperature, there is a rise in temperature. The rise in temperature ranges from about 5 degrees C. to about 15 degrees C.; it also ranges from about 8 degrees C. to about 12 degrees C. This rise in temperature is about 2-3 times more than that obtained with the same weight of glycerine (FIG. 1) or propylene glycol. The temperature rise reaches a maximum of about 12 degrees C. when about 60% by weight of Hest G-18-O is used. This compares to a maximum of only about 5 degrees C. for glycerine or propylene glycol.
The maximum amount of heat (though not the greatest rise in temperature) is obtained when the Hest G-18-O is dissolved in a large excess of water. If the Hest G-18-O, glycerine or propylene glycol is not anhydrous, some of its heat of solution will already have been dissipated. Correspondingly, smaller amounts of heat will be produced by further dilution.

maximum temperature rise | Structure (SMILES)
about 5 degrees C. | OCC(O)CO [glycerine]
about 5 degrees C. | CC(O)CO (centres unmarked) [propylene glycol]
